{"source": "patent US20140065212A1", "about": "“COATED PHARMACEUTICAL COMPOSITION CONTAINING REGORAFENIB” (Bayer Healthcare LLC, priority 2012, published 2014)", "assay": "thermodynamic solubility of regorafenib monohydrate in different solvents", "format": "physicochemical", "details": "thermodynamic from solid", "source_text": "Furthermore salts of the compound of formula (I) such as its hydrochloride, mesylate and phenylsulfonate are mentioned in WO 2005/009961. The monohydrate of the compound of formula (I) is mentioned in WO 2008/043446. An improved process for the manufacturing of regorafenib in high purity is described in WO 2011/128261. Due to the limited solubility of regorafenib monohydrate (see table 1) an applicable pharmaceutical composition containing regorafenib is in form of a solid dispersion as described in WO 2006/026500.", "data": [{"smiles": "CNC(=O)c1cc(Oc2ccc(NC(=O)Nc3ccc(Cl)c(C(F)(F)F)c3)c(F)c2)ccn1", "note": "[regorafenib monohydrate]", "values": [{"measurement": "solubility", "setting": "aqueous with cosolvent or surfactant or cyclodextrin, solvent: HPβ-Cyclodextrin/water (10:90)", "value": "< 100", "unit": "µg/mL"}, {"measurement": "solubility", "setting": "aqueous with cosolvent or surfactant or cyclodextrin, solvent: PEG 400/water (30:70)", "value": 270, "unit": "µg/mL"}, {"measurement": "solubility", "setting": "light liquid paraffin, oil or lipid, solvent: Ligth liquid paraffin", "value": "< 100", "unit": "µg/mL"}, {"measurement": "solubility", "setting": "oil or lipid, solvent: Oleoylpolyethylenglycol glycerides", "value": 3600, "unit": "µg/mL"}, {"measurement": "solubility", "setting": "organic solvent or mixture, solvent: Ethanol", "value": 6400, "unit": "µg/mL"}, {"measurement": "solubility", "setting": "organic solvent or mixture, solvent: Polyethylenglycol (PEG) 400", "value": 67300, "unit": "µg/mL"}, {"measurement": "solubility", "setting": "solvent: Water", "value": "< 100", "unit": "µg/mL"}]}]}
